Measured values: ChEMBL document CHEMBL5518227, “Discovery of JNJ-1802, a First-in-Class Pan-Serotype Dengue Virus NS4B Inhibitor” (J Med Chem, 2024)
≈ marks a conversion by molar mass, not a printed value. Where “and” joins values, the source holds several entries; their conditions need not be identical. Equal values may be shown once.

Legend:
dengue virus type 4 = test: Antiviral activity against DENV-4 H241 infected in african green monkey Vero cells incubated for 24 hrs measured after 3 days post infection by RT-PCR analysis; assay type: functional, organism-based
dengue virus type 2 = test: Antiviral activity against DENV-2 16681 expressing eGFP infected in african green monkey Vero cells incubated with cells for 24 hrs followed by viral infection measured after 3 days by laser microscopic analysis; assay type: functional, organism-based; details: Dengue virus, 16681, Vero
dengue virus type 1 = test: Antiviral activity against DENV-1 TC974#666 infected in african green monkey Vero cells incubated for 24 hrs measured after 3 days post infection by RT-PCR analysis; assay type: functional, organism-based
dengue virus type 3 = test: Antiviral activity against DENV-3 H87 infected in african green monkey Vero cells incubated for 24 hrs measured after 3 days post infection by RT-PCR analysis; assay type: functional, organism-based
[1] = Metabolic stability in human liver microsomes assessed as intrinsic clearance preincubated for 5 mins followed by NADPH addition measured upto 60 mins by LC-MS/MS analysis; assay type: ADME, Microsome; details: time < 65 min, read-out: CLH
[2] = Metabolic stability in rat liver microsomes assessed as intrinsic clearance preincubated for 5 mins followed by NADPH addition measured upto 60 mins by LC-MS/MS analysis; assay type: ADME, Microsome; details: time < 65 min, read-out: CLH
[3] = Chromatographic hydrophobicity index, log D of the compound at pH 7.4 by LC/MS analysis; assay type: physicochemical; details: buffer
[4] = Metabolic stability in human hepatocytes assessed as intrinsic clearance measured per million cells incubated upto 120 mins by LC-MS/MS analysis; assay type: ADME, cell-based, Hepatocyte; details: read-out: CLH
[5] = Oral bioavailability in Sprague-Dawley rat at 10 mg/kg measured after 24 to 48 hrs by LC-MS/MS analysis; assay type: ADME, organism-based; details: in vivo, time 24-48 hrs
[6] = Volume of distribution at steady state in Sprague-Dawley rat at 2.5 mg/kg, iv measured after 24 hrs by LC-MS/MS analysis; assay type: ADME, organism-based; details: in vivo, read-out: Vdss
[7] = Clearance in Sprague-Dawley rat assessed as liver blood flow at 2.5 mg/kg, iv measured after 24 hrs by LC-MS/MS analysis; assay type: ADME, organism-based; details: in vivo
[8] = Cmax in Sprague-Dawley rat at 10 mg/kg, po measured after 24 to 48 hrs by LC-MS/MS analysis; assay type: ADME, organism-based; details: in vivo, time 24-48 hrs
[9] = AUC in Sprague-Dawley rat at 10 mg/kg, po measured after 24 to 48 hrs by LC-MS/MS analysis; assay type: ADME, organism-based; details: in vivo, time 24-48 hrs
[10] = Clearance in Sprague-Dawley rat at 2.5 mg/kg, iv measured after 24 hrs by LC-MS/MS analysis; assay type: ADME, organism-based; details: in vivo
[11] = Elimination half life in Sprague-Dawley rat at 2.5 mg/kg, iv measured after 24 hrs by LC-MS/MS analysis; assay type: ADME, organism-based; details: in vivo, read-out: beta t1/2 (converted)
[12] = Thermodynamic solubility of the compound in aqueous buffer at pH 7.4 measured after 24 hrs by UPLC analysis; assay type: physicochemical; details: read-out: Therm_solubility
[13] = Metabolic stability in rat hepatocytes assessed as intrinsic clearance measured per million cells incubated upto 120 mins by LC-MS/MS analysis; assay type: ADME, cell-based, Hepatocyte; details: read-out: CLH
[14] = Metabolic stability in mouse liver microsomes assessed as intrinsic clearance preincubated for 5 mins followed by NADPH addition measured upto 60 mins by LC-MS/MS analysis; assay type: ADME, Microsome; details: time < 65 min, read-out: CLH
[15] = Thermodynamic solubility of the compound in PEG400 measured after 24 hrs by UPLC analysis; assay type: physicochemical
[16] = Dengue virus, TC974#666, Vero, read-out: EC50
[17] = Dengue virus, H87, Vero, read-out: EC50

Row | EC50 (dengue virus type 4) [nM] | EC50 (dengue virus type 2) [nM] | microsomal CLint [1] [µL/min/mg] | Chromatographic log D at pH 7.4 [3] | EC50 (dengue virus type 1; [16]) [nM] | EC50 (dengue virus type 3; [17]) [nM] | hepatocyte CLint [4] [µL/min/1e6 cells] | Compound | also measured
1 | 14000 | 230 | 35 |  |  |  |  | COc1cc(NC(C(=O)c2c[nH]c3ccccc23)c2ccc(F)cc2)cc(S(=O)(=O)CCCO)c1 (configuration not stated) | EC50 (dengue virus type 1; vero): Not Active; EC50 (dengue virus type 3; vero): Not Active; microsomal CLint [2]: 66 µL/min/mg
2 | 100 | 0.34 | < 8 | 3.22 | 4 | 53 | 10 | COc1cc(NC(C(=O)c2c[nH]c3cc(OC)c(F)cc23)c2ccc(Cl)cc2OC)cc(S(C)(=O)=O)c1 (single isomer, unassigned; (+)) | 
3 | 290 | 1 |  | Not Active | 8 | 68 | 27 | COc1cc(NC(C(=O)c2c[nH]c3cc(F)ccc23)c2ccc(F)cc2OCCO)cc(S(C)(=O)=O)c1 (single isomer, unassigned; (+)) | bioavailability [5]: 27%; Vd [6]: 10 L/kg; LBF [7]: 40%; Cmax [8]: 104 ng/mL; AUC [9]: 1250 ng·h/mL; clearance [10]: 35 mL/min/kg; half-life [11]: 234 min; solubility thermodynamic at 24 h [12]: 1 µg/mL (≈ 1.88 µM); hepatocyte CLint [13]: 8.8 µL/min/1e6 cells
4 | 83 | 0.24 | < 8 | 3.73 | 2 | 19 |  | COc1cc(NC(C(=O)c2c[nH]c3c(C)c(F)ccc23)c2ccc(Cl)cc2OC)cc(S(C)(=O)=O)c1 (single isomer, unassigned; (+)) | 
5 | 760 | 9 | 8 |  | 40 | 210 |  | COc1cc(NC(C(=O)c2c[nH]c3ccccc23)c2ccc(F)cc2OC)cc(OCCO)c1 (single isomer, unassigned; (+)) | microsomal CLint [14]: 190 µL/min/mg; microsomal CLint [2]: 24 µL/min/mg
6 | 11 | 0.051 | < 8 | 4.16 | 0.1 | 1 | < 1.2 | COc1cc(NC(C(=O)c2c[nH]c3c(C)cc(OC(F)(F)F)cc23)c2ccc(Cl)cc2OC)cc(S(C)(=O)=O)c1 (configuration not stated) | 
7 | 71 | 0.46 |  |  | 1 | 9 | 29 | COc1cc(NC(C(=O)c2c[nH]c3cc(F)ccc23)c2ccc(Cl)cc2OCCO)cc(S(C)(=O)=O)c1 (single isomer, unassigned; (+)) | 
8 | 15 | 0.31 | < 8 | 3.87 | 0.4 | 6 | < 1.2 | COc1cc(NC(C(=O)c2c[nH]c3ccc(C(F)(F)F)cc23)c2ccc(Cl)cc2OC)cc(S(C)(=O)=O)c1 (single isomer, unassigned; (+)) | 
9 | 110 | 0.3 | < 8 | 3.23 | 4 | 48 | 10 | COc1cc(NC(C(=O)c2c[nH]c3cc(OC)ccc23)c2ccc(Cl)cc2OC)cc(S(C)(=O)=O)c1 (single isomer, unassigned; (+)) | 
10 | 110 | 0.61 |  | 3.36 | 40 | 55 | 7.6 | COc1cc(NC(C(=O)c2c[nH]c3cc(OC)c(C)cc23)c2ccc(F)cc2OC)cc(S(C)(=O)=O)c1 (single isomer, unassigned; (+)) | bioavailability [5]: 31%; Vd [6]: 5.5 L/kg; LBF [7]: 20%; Cmax [8]: 263 ng/mL; AUC [9]: 3700 ng·h/mL; clearance [10]: 14 mL/min/kg; Therm_solubility [15]: 93 mg/mL; half-life [11]: 306 min; solubility thermodynamic at 24 h [12]: 1 µg/mL (≈ 1.9 µM); hepatocyte CLint [13]: 17 µL/min/1e6 cells
11 |  |  | < 8 |  | 0.97 |  |  | COc1cc(NC(C(=O)c2c[nH]c3cc(OC)c(C)cc23)c2ccc(Cl)cc2OC)cc(S(C)(=O)=O)c1 (configuration not stated) | bioavailability [5]: 74%; Vd [6]: 8.8 L/kg; LBF [7]: 33%; Cmax [8]: 371 ng/mL; AUC [9]: 5140 ng·h/mL; clearance [10]: 23 mL/min/kg; Therm_solubility [15]: > 169 mg/mL; half-life [11]: 264 min; EC50 (dengue virus type 1; vero, read-out: EC50): 0.9 nM; solubility thermodynamic at 24 h [12]: 1 µg/mL (≈ 1.84 µM); hepatocyte CLint [13]: 7.2 µL/min/1e6 cells
12 | 44 | 0.17 | < 8 | 3.68 | 0.4 | 8 | 2.4 | COc1cc(NC(C(=O)c2c[nH]c3cc(F)c(C)cc23)c2ccc(Cl)cc2OC)cc(S(C)(=O)=O)c1 (single isomer, unassigned; (+)) | 
13 |  |  | < 8 | 3.46 |  |  |  | COc1cc(NC(C(=O)c2c[nH]c3cc(F)ccc23)c2ccc(Cl)cc2OC)cc(S(C)(=O)=O)c1 (single isomer, unassigned; (+)) | EC50 (dengue virus type 1; vero, read-out: EC50): 20 nM and 2 nM
14 | 95 | 0.11 | < 8 | 3.59 | 2 | 19 | 14 | COc1cc(NC(C(=O)c2c[nH]c3c(C)c(OC)ccc23)c2ccc(Cl)cc2OC)cc(S(C)(=O)=O)c1 (single isomer, unassigned; (+)) | 
15 | 11 | 0.057 | < 8 | 3.82 | 0.3 | 4 | < 1.2 | COc1cc(NC(C(=O)c2c[nH]c3cc(OC)c(OC(F)(F)F)cc23)c2ccc(Cl)cc2OC)cc(S(C)(=O)=O)c1 (single isomer, unassigned; (+)) | 
16 | 53 | 0.37 |  | 3.24 | 2 | 17 | < 1.9 | COc1cc(NC(C(=O)c2c[nH]c3cc(OC)c(C)cc23)c2ccc(Cl)cc2OCCO)cc(S(C)(=O)=O)c1 (single isomer, unassigned; (+)) | bioavailability [5]: 16%; Vd [6]: 7.1 L/kg; LBF [7]: 31%; Cmax [8]: 103 ng/mL; AUC [9]: 1200 ng·h/mL; clearance [10]: 21 mL/min/kg; half-life [11]: 282 min; solubility thermodynamic at 24 h [12]: < 1 µg/mL; hepatocyte CLint [13]: 3.7 µL/min/1e6 cells
17 | 110 | 0.84 |  | 2.98 | 3 | 43 | < 1.9 | COc1cc(NC(C(=O)c2c[nH]c3cc(OC)c(C)cc23)c2ccc(F)cc2OCCO)cc(S(C)(=O)=O)c1 (single isomer, unassigned; (+)) | bioavailability [5]: 18%; Vd [6]: 9.6 L/kg; LBF [7]: 42%; Cmax [8]: 94 ng/mL; AUC [9]: 1010 ng·h/mL; clearance [10]: 30 mL/min/kg; half-life [11]: 252 min; solubility thermodynamic at 24 h [12]: < 1 µg/mL; hepatocyte CLint [13]: 11 µL/min/1e6 cells
18 | 1800 | 9 | 12 |  | 88 | 680 |  | COc1cc(NC(C(=O)c2c[nH]c3ccccc23)c2ccc(F)cc2)cc(S(C)(=O)=O)c1 (configuration not stated) | microsomal CLint [14]: 48 µL/min/mg; microsomal CLint [2]: 16 µL/min/mg
19 | 170 |  |  | 3.23 | 8 | 50 | < 1.9 | COc1cc(NC(C(=O)c2c[nH]c3cc(F)ccc23)c2ccc(F)cc2OC)cc(S(C)(=O)=O)c1 (configuration not stated) | bioavailability [5]: 49%; Vd [6]: 7.2 L/kg; LBF [7]: 23%; Cmax [8]: 418 ng/mL; AUC [9]: 5210 ng·h/mL; clearance [10]: 16 mL/min/kg; Therm_solubility [15]: 41 mg/mL; half-life [11]: 318 min; solubility thermodynamic at 24 h [12]: 2 µg/mL (≈ 4 µM); hepatocyte CLint [13]: 8.5 µL/min/1e6 cells
20 | 2600 | 14 | < 8 |  | 86 | 950 |  | COc1cc(NC(C(=O)c2c[nH]c3ccccc23)c2ccc(F)cc2)cc(OCCO)c1 (configuration not stated) | microsomal CLint [14]: 94 µL/min/mg; microsomal CLint [2]: 24 µL/min/mg
21 | 230 | 2 | 9 |  | 12 | 120 | 7 | COc1cc(NC(C(=O)c2c[nH]c3ccccc23)c2ccc(F)cc2OC)cc(S(C)(=O)=O)c1 (single isomer, unassigned; (+)) | microsomal CLint [14]: 27 µL/min/mg; microsomal CLint [2]: 15 µL/min/mg
